For one data set, the system named is K562. The data set is described as follows: Cytotoxicity against human K562 cells incubated for 72 hrs by CCK8 assay. Type of data set: functional, cell-based. Particulars: K562, 72 h.
Another data set concerns K562/VCR. Nature of the data set: Cytotoxicity against human K562/VCR cells incubated for 72 hrs by CCK8 assay. Type of data set: functional, cell-based. For orientation: Formazan colour is commonly taken as a measure of viable cells.
Data set [1] has as its system A549. Nature of the data set: Antiproliferative activity against human A549 cells incubated for 24 hrs by MTT assay. Type of data set: functional, cell-based. Particulars: A549, 24 h.
In data set [2] the test system is HeLa. Nature of the data set: Antiproliferative activity against human HeLa cells incubated for 24 hrs by MTT assay. Type of data set: functional, cell-based.
Data set [3] can be described thus: Selectivity ratio of IC50 for human L02 cells to IC50 for human Calu-1 cells. Particulars: L02 cells / Calu-1 cells, read-out: Ratio IC50. It counts as toxicity.
Data set [4] is described as follows: Selectivity ratio of IC50 for human L02 cells to IC50 for human HeLa cells. Type of data set: toxicity. Particulars: read-out: Ratio IC50.
Data set [5] in a line: Selectivity ratio of IC50 for African green monkey Vero cells to IC50 for human A549 cells. Type of data set: toxicity. Particulars: read-out: Ratio IC50.
The nature of data set [6]: Selectivity ratio of IC50 for African green monkey Vero cells to IC50 for human Calu-1 cells. It counts as toxicity. Particulars: Vero cells / Calu-1 cells, read-out: Ratio IC50.
A further data set concerns Calu-1. The data set is described as follows: Antiproliferative activity against human Calu-1 cells incubated for 24 hrs by MTT assay. Type of data set: functional, cell-based. Particulars: Calu-1, 24 h.
The nature of data set [7]: Selectivity ratio of IC50 for African green monkey Vero cells to IC50 for human HeLa cells. It counts as toxicity. Particulars: read-out: Ratio IC50.
The next data set relates to Vero. Nature of the data set: Cytotoxicity against African green monkey Vero cells. Type of data set: cell-based. Particulars: Chlorocebus sabaeus.
Data set [8] relates to L02. Nature of the data set: Cytotoxicity against human L02 cells. Type of data set: cell-based.
A short description of data set [9]: Selectivity ratio of IC50 for human L02 cells to IC50 for human A549 cells. Type of data set: toxicity. Particulars: read-out: Ratio IC50.
The test system of data set [10] is A549. Nature of the data set: Antiproliferative activity against human A549 cells incubated for 48 hrs by MTT assay. Type of data set: functional, cell-based. Particulars: A549, 48 h.
Data set [11] has as its system MCF7. Nature of the data set: Antiproliferative activity against human MCF7 cells incubated for 48 hrs by MTT assay. Type of data set: functional, cell-based. Particulars: MCF7, 48 h.
Data set [12] concerns SW480. Nature of the data set: Antiproliferative activity against human SW480 cells incubated for 48 hrs by MTT assay. Type of data set: functional, cell-based. Particulars: SW480, 48 h.
Data set [13] deals with SMMC-7721. The data set is described as follows: Antiproliferative activity against human SMMC-7721 cells incubated for 48 hrs by MTT assay. It counts as functional, cell-based. Particulars: SMMC-7721, 48 h.
A further data set relates to HL-60. Nature of the data set: Antiproliferative activity against human HL-60 cells incubated for 48 hrs by MTT assay. It counts as functional, cell-based. Particulars: HL-60, 48 h.
The test system of data set [14] is SMMC-7721. Nature of the data set: Potency index, ratio of cisplatin IC50 to test compound IC50 for antiproliferative activity against human SMMC7721 cells. Type of data set: functional.
Data set [15] concerns A549. Nature of the data set: Potency index, ratio of cisplatin IC50 to test compound IC50 for antiproliferative activity against human A549 cells. It counts as functional.
Data set [16] deals with MCF7. The data set is described as follows: Potency index, ratio of cisplatin IC50 to test compound IC50 for antiproliferative activity against human MCF7 cells. Type of data set: functional.
Data set [17] concerns SW480. The data set is described as follows: Potency index, ratio of cisplatin IC50 to test compound IC50 for antiproliferative activity against human SW480 cells. It counts as functional.
In data set [18] the test system is MCF7. Nature of the data set: Antiproliferative activity against human MCF7 cells incubated for 72 hrs by MTT assay. It counts as functional, cell-based. Particulars: MCF7, 72 h.
The subject of data set [19] is A549. Nature of the data set: Antiproliferative activity against human A549 cells incubated for 72 hrs by MTT assay. Particulars: A549, 72 h. Type of data set: functional, cell-based.
For a further data set, the system named is SK-OV-3. Nature of the data set: Antiproliferative activity against human SK-OV-3 cells incubated for 72 hrs by MTT assay. Particulars: SK-OV-3, 72 h. It counts as functional, cell-based.
Data set [20] deals with HepG2. The data set is described as follows: Antiproliferative activity against human HepG2 cells incubated for 72 hrs by MTT assay. Type of data set: functional, cell-based. Particulars: HepG2, 72 h.
Data set [21] has as its system HeLa. Nature of the data set: Antiproliferative activity against human HeLa cells incubated for 72 hrs by MTT assay. It counts as functional, cell-based.
The subject of the next data set is CT26. Nature of the data set: Antiproliferative activity against […] cells incubated for 72 hrs by MTT assay. Particulars: Mus musculus, CT26, 72 h. Type of data set: functional, cell-based.
Another data set has as its system B16-F10. Nature of the data set: Antiproliferative activity against mouse B16/F10 cells incubated for 72 hrs by MTT assay. Particulars: B16-F10, 72 h. Type of data set: functional, cell-based.
Data set [22] has as its system HepG2. Nature of the data set: Antiproliferative activity against human HepG2 cells incubated for 48 hrs by MTT assay. Type of data set: functional, cell-based. Particulars: HepG2, 48 h.
For data set [23], the system named is BGC-823. The data set is described as follows: Antiproliferative activity against human BGC-823 cells incubated for 48 hrs by MTT assay. It counts as functional, cell-based. Particulars: BGC-823, 48 h.
In data set [24] the test system is L02. Nature of the data set: Cytotoxicity against human HL7702 cells incubated for 48 hrs by MTT assay. It counts as cell-based. Particulars: L02, 48 h.
Data set [25] deals with MCF7. The data set is described as follows: Cytotoxicity against human MCF7 cells by MTT assay. Type of data set: functional, cell-based.
Data set [26] deals with MCF7. Nature of the data set: Antiproliferative activity against human MCF7 cells incubated for 24 hrs by MTT assay. Type of data set: functional, cell-based. Particulars: MCF7, 24 h.
Data set [27] relates to HepG2. The data set is described as follows: Antiproliferative activity against human HepG2 cells incubated for 24 hrs by MTT assay. It counts as functional, cell-based. Particulars: HepG2, 24 h.
The next data set concerns MKN-45. Nature of the data set: Antiproliferative activity against human MKN-45 cells incubated for 72 hrs by MTT assay. It counts as functional, cell-based. Particulars: Homo sapiens, MKN-45, 72 h.
For data set [28], the system named is BGC-823. The data set is described as follows: Antiproliferative activity against human BGC-823 cells incubated for 72 hrs by MTT assay. Type of data set: functional, cell-based. Particulars: BGC-823, 72 h.

Bounds are passed on as bounds.

The IC50 is the concentration that gives 50% inhibition.

Consider `COc1cc([C@@H]2c3cc4c(cc3[C@H](OC(=O)c3ccc5[nH]ccc5c3)[C@H]3COC(=O)[C@H]23)OCO4)cc(OC)c1OC`, for which the half-maximal inhibitory concentration (IC50) in the data set with K562 and in the data set on K562/VCR was 81 nM each time.
`COc1cc([C@@H]2c3cc4c(cc3[C@H](OC(=O)CCCCC3CCSC(c5ccc(C)cc5)S3)[C@H]3COC(=O)[C@H]23)OCO4)cc(OC)c1OC` (stereo not given in full): the concentration for half-maximal inhibition (IC50) with A549 [1] was 2680 nM; in the data set with HeLa [2] it was 2680 nM; in the data set with Calu-1, 2680 nM; with Vero, above 93800 nM; with L02 [8], above 93800 nM. The selectivity ratio in data set [3], in data set [4], in [5], in data set [6], in data set [7] and in [9] was at least 9.7 in each case.
`CCCC(=O)O[C@@H]1[C@@H](OC(=O)CCC)[C@@H](O[C@@H]2c3cc4c(cc3[C@@H](c3cc(OC)c(OC)c(OC)c3)[C@H]3C(=O)OC[C@@H]32)OCO4)OC[C@H]1OC(=O)CCC`: the half-inhibitory concentration (IC50) with A549 [10] was above 2900 nM; with MCF7 [11] it was above 2900 nM; in the data set on SW480 [12] it was above 2900 nM; with SMMC-7721 [13] it was above 2900 nM; in the data set on HL-60, 140 nM. Also, the “Ratio IC50” value with SMMC-7721 [14], in the data set on A549 [15], in the data set with MCF7 [16] and with SW480 [17] was 1.9 in each case.
Take `COc1ccc(-c2coc3cc(OCCCCC(=O)O[C@@H]4c5cc6c(cc5[C@@H](c5cc(OC)c(OC)c(OC)c5)[C@H]5C(=O)OC[C@@H]54)OCO6)ccc3c2=O)cc1`: the IC50 with MCF7 [18], in the data set on A549 [19], in the data set on SK-OV-3, in the data set with HepG2 [20], in the data set with HeLa [21] and in the data set with CT26 was 213 nM in each case. Moreover, the IC50 in the data set on B16-F10 is 213 nM.
Regarding `COc1cc([C@@H]2c3cc4c(cc3[C@@H](Sc3nc(N)nc5nc[nH]c35)[C@H]3COC(=O)[C@H]23)OCO4)cc(OC)c1OC`, the concentration for half-maximal inhibition (IC50) in the data set on A549 [10], in the data set on HepG2 [22], in the data set on BGC-823 [23] and in the data set with L02 [24] was 300 nM each time.
The molecule `COc1cc([C@@H]2c3cc4c(cc3[C@@H](OCc3cn([C@@H]5O[C@H](COC(C)=O)[C@H](OC(C)=O)[C@H](OC(C)=O)[C@H]5OC(C)=O)nn3)[C@H]3COC(=O)[C@H]23)OCO4)cc(OC)c1OC` showed an IC50 in the data set on MCF7 [25] of 1250 nM.
For `COc1cc([C@@H]2c3cc4c(cc3[C@H](OC(=O)CSc3nnc(-c5ccc(Br)cc5)o3)[C@H]3COC(=O)[C@H]23)OCO4)cc(OC)c1OC`, the half-maximal inhibitory concentration (IC50) was 2540 nM with A549 [1]; 2540 nM with MCF7 [26]; 2540 nM in the data set with HepG2 [27]; 2540 nM in the data set on HeLa [2]; 79600 nM in the data set on L02 [8].
Consider `COc1ccc(-c2coc3cc(OCC(=O)O[C@@H]4c5cc6c(cc5[C@@H](c5cc(OC)c(OC)c(OC)c5)[C@H]5C(=O)OC[C@@H]54)OCO6)ccc3c2=O)cc1`, for which the half-inhibitory concentration (IC50) with MCF7 [18], in the data set on A549 [19], in the data set on SK-OV-3, in the data set with HepG2 [20], with HeLa [21] and in the data set on CT26 was 213 nM throughout. Moreover, the midpoint of inhibition in the data set on B16-F10, the IC50, lay at 213 nM.
For the molecule `CC1=C(/C=C/C(C)=C/C=C/C(C)=C/C(O)O)C(C)(C)CCC1`, the values for the concentration for half-maximal inhibition (IC50) in the data set on MKN-45 and in the data set on BGC-823 [28] were 88500 nM and 83100 nM, respectively.
Turning to `COc1ccc(/C=C\c2cc(OC)c(OC)c(OC)c2)cc1O` [COMBRETASTATIN A4], the IC50 was determined as 2780 nM with A549 [1]; 3450 nM with MCF7 [26]; 3450 nM in the data set with HepG2 [27]; 2780 nM with HeLa [2]; 2780 nM with Calu-1; 2560 nM in the data set on Vero. In addition, the IC50 in the data set on L02 [8] was determined as 4230 nM.
